From US8143244B2, “Cyclopropyl fused indolobenzazepine HCV NS5B inhibitors” (Bristol-Myers Squibb Company, priority 2009, dated 2012)
Read-outs that look alike come from different tables or passages of the source.

Columns and labels:
HCV NS5B = biological target: T1, HCV NS5B (Hepatitis C virus genotype 1b, UniProt Q9WMX2); experiment: HCV NS5B RdRp enzyme assay; format: biochemical; conditions: HCV NS5B RdRp genotype 1b
T1 construct: The protein was expressed with an 18 amino acid C-terminal truncation to enhance the solubility; made in house; host or cells: E. coli BL21(DE3)
Procedure: HCV NS5B RdRp cloning, expression, and purification. The cDNA encoding the NS5B protein of HCV, genotype 1b, was cloned into the pET21a expression vector. The protein was expressed with an 18 amino acid C-terminal truncation to enhance the solubility. The E. coli competent cell line BL21(DE3) was used for expression of the protein. Cultures were grown at 37° C. for ˜4 hours until the cultures reached an optical density of 2.0 at 600 nm. The cultures were cooled to 20° C. and induced with 1 mM IPTG. Fresh ampicillin was added to a final concentration of 50 μg/ml and the cells were grown overnight at 20° C.
Cell pellets (3L) were lysed for purification to yield 15-24 mgs of purified NS5B. The lysis buffer consisted of 20 mM Tris-HCl, pH 7.4, 500 mM NaCl, 0.5% triton X-100, 1 mM DTT, 1 mM EDTA, 20% glycerol, 0.5 mg/ml lysozyme, 10 mM MgCl2, 15 ug/ml deoxyribonuclease I, and Complete TM protease inhibitor tablets (Roche). After addition of the lysis buffer, frozen cell pellets were resuspended using a tissue homogenizer. To reduce the viscosity of the sample, aliquots of the lysate were sonicated on ice using a microtip attached to a Branson sonicator. The sonicated lysate was centrifuged at 100,000×g for 1 hr at 4° C. and filtered through a 0.2 μm filter unit (Corning).
The protein was purified using three sequential chromatography steps: Heparin sepharose CL-6B, polyU sepharose 4B, and Hitrap SP sepharose (Pharmacia). The chromatography buffers were identical to the lysis buffer but contained no lysozyme, deoxyribonuclease I, MgCl2 or protease inhibitor and the NaCl concentration of the buffer was adjusted according to the requirements for charging the protein onto the column. Each column was eluted with a NaCl gradient which varied in length from 5-50 column volumes depending on the column type. After the final chromatography step, the resulting purity of the enzyme is >90% based on SDS-PAGE analysis. The enzyme was aliquoted and stored at −80° C.
Standard HCV NS5B RdRp enzyme assay. HCV RdRp genotype 1b assays were run in a final volume of 60 μl in 96 well plates (Costar 3912). The assay buffer is composed of 20 mM Hepes, pH 7.5, 2.5 mM KCl, 2.5 mM MgCl2, 1 mM DTT, 1.6 U RNAse inhibitor (Promega N2515), 0.1 mg/ml BSA (Promega R3961), and 2% glycerol. All compounds were serially diluted (3-fold) in DMSO and diluted further in water such that the final concentration of DMSO in the assay was 2%. HCV RdRp genotype 1b enzyme was used at a final concentration of 28 nM. A polyA template was used at 6 nM, and a biotinylated oligo-dT12 primer was used at 180 nM final concentration. Template was obtained commercially (Amersham 27-4110). Biotinylated primer was prepared by Sigma Genosys. 3H-UTP was used at 0.6 μCi (0.29 μM total UTP). Reactions were initiated by the addition of enzyme, incubated at 30° C. for 60 min, and stopped by adding 25 μl of 50 mM EDTA containing SPA beads (4 μg/μl, Amersham RPNQ 0007). Plates were read on a Packard Top Count NXT after >1 hr incubation at room temperature.
Modified HCV NS5B RdRp enzyme assay. A modified enzyme assay was performed essentially as described for the standard enzyme assay except for the following: The biotinylated oligo dT12 primer was precaptured on streptavidin-coated SPA beads by mixing primer and beads in assay buffer and incubating at room temperature for one hour. Unbound primer was removed after centrifugation. The primer-bound beads were resuspended in 20 mM Hepes buffer, pH 7.5 and used in the assay at final concentrations of 20 nM primer and 0.67 μg/μl beads. Order of addition in the assay: enzyme (14 nM) was added to diluted compound followed by the addition of a mixture of template (0.2 nM), 3H-UTP (0.6 μCi, 0.29 μM), and primer-bound beads, to initiate the reaction; concentrations given are final. Reactions were allowed to proceed for 4 hours at 30° C.
IC50 values for compounds were determined using seven different [I]. […]

HCV replicon = experiment: HCV Replicon Luciferase Reporter Assay (LE Assay); format: cell-based, HCV genotype 1b; conditions: Hepatitis C virus
Procedure: (§1) The HCV replicon luciferase assay was developed to monitor the inhibitory effects of compounds described in the disclosure on HCV viral replication. Utilization of a replicon luciferase reporter assay was first described by Krieger et al (Krieger N, Lohmann V, and Bartenschlager R, J. Virol. 75(10):4614-4624 (2001)). HUH-7 cells, constitutively expressing the HCV replicon, were grown in Dulbeccors Modified Eagle Media (DMEM) (Gibco-BRL) containing 10% Fetal calf serum (FCS) (Sigma) and 1 mg/ml G418 (Gibco-BRL). Compounds were serially diluted 3 folds in DMSO for a twenty-point titration and subsequently transferred to sterile 384-well tissue-culture treated plates (Coming cat #3571). The plates were then seeded with 50 μl of cells at a density of 3.0×10^3 cells/well in DMEM containing 4% FCS (final DMSO concentration at 0.5%). After 3 days incubation at 37° C., cells were analyzed for Renilla Luciferase activity using the EnduRen as substrate (Promega cat #E6485). The EnduRen substrate was diluted in DMEM and then added to the plates to a final concentration of 7.5 μM. The plates were incubated for 2 hrs at 37° C. and then read immediately for 30 seconds with Viewlux Imager (PerkinElmer) using a luminescence program. To assess cytotoxicity of compounds, CC50 values were generated by multiplexing the EnduRen-containing plates with Cell Titer-Blue (Promega, cat #G8082). 3 μl of Cell-Titer Blue was added to each well and incubated for 8 hrs at 37° C. The fluorescence signal from each well was read, with an excitation wavelength at 525/10 nm and an emission wavelength of 598/10 nm, using the Viewlux Imager.

HCV replicon genotype 1a = experiment: HCV Replicon Luciferase Reporter Assay (LE Assay), genotype 1a replicon; format: cell-based, HCV genotype 1a; conditions: Hepatitis C virus, read-out: LE NeoLuc EC50
Procedure: as §1

[1] = genotype 1b, Huh-7, read-out: LE NeoLuc EC50, Table 1, HUH-7 cells, genotype 1b replicon
[2] = Huh-7, Table 2, HUH-7 cells, read-out: LE NeoLuc EC50

T1 sequence (Q9WMX2 2420-2992): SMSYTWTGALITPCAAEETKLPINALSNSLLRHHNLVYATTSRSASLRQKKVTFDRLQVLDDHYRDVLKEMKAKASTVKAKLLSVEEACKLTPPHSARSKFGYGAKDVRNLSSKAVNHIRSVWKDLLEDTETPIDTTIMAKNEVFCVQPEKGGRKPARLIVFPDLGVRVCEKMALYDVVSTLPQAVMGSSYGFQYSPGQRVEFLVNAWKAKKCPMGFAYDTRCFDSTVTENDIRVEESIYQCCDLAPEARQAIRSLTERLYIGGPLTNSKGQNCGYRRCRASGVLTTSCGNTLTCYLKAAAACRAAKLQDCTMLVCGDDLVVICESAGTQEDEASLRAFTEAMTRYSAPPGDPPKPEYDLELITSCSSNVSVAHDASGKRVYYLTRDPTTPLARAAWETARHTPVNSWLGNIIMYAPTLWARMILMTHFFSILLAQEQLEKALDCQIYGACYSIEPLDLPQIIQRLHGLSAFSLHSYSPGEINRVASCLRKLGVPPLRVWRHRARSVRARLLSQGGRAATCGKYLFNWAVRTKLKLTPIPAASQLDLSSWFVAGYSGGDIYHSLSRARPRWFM

**Q.** With `COc1ccc2c(c1)[C@@H]1C[C@]1(C(=O)N1CC34CCCC3(CN(C)C4)C1)Cn1c-2c(C2CCCCC2)c2ccc(C(=O)NS(=O)(=O)C(C)C)cc21` (stereo partly shown) as the compound, how does the IC50 (HCV NS5B; Table 1) read?
**A.** 1.9 to 500 nM

**Q.** And the EC50 (HCV replicon; [1])?
**A.** 1.9 to 500 nM

**Q.** Which results are given for `COc1ccc2c(c1)C=C(C(=O)N1CC34COCC3(C1)N(C(C)=O)C4)Cn1c-2c(C2CCCCC2)c2ccc(C(=O)NS(=O)(=O)C(C)C)cc21` (stereo not shown)?
**A.** IC50 (HCV NS5B; Table 1): 1.9 to 500 nM; EC50 (HCV replicon; [1]): 1.9 to 500 nM

**Q.** For `COc1ccc2c(c1)[C@@H]1C[C@]1(C(=O)N1CC34CCC3(C1)N(C(C)=O)C4)Cn1c-2c(C2CCCCC2)c2ccc(C(=O)NS(=O)(=O)C(C)C)cc21` (stereo partly shown), which IC50 (HCV NS5B; Table 1) is on record?
**A.** 1.9 to 500 nM

**Q.** What about the EC50 (HCV replicon; [1]) of the same compound?
**A.** 1.9 to 500 nM

**Q.** For `COc1ccc2c(c1)[C@@H]1C[C@]1(C(=O)N1CC34COCC3(CN(CC(F)(F)F)C4)C1)Cn1c-2c(C2CCCCC2)c2ccc(C(=O)NS(=O)(=O)N(C)C)cc21` (stereo partly shown), which EC50 (HCV replicon genotype 1a) is on record?
**A.** 1.9 to 500 nM

**Q.** What about the IC50 (HCV NS5B; Table 1) of the same compound?
**A.** 1.9 to 500 nM

**Q.** How did the EC50 (HCV replicon genotype 1a) turn out when `COc1ccc2c(c1)[C@@H]1C[C@]1(C(=O)N1CC34COCC3(C1)CN(S(=O)(=O)C(C)C)C4)Cn1c-2c(C2CCCCC2)c2ccc(C(=O)NS(=O)(=O)N(C)C)cc21` (stereo partly shown) was run?
**A.** 1.9 to 500 nM

**Q.** And the IC50 (HCV NS5B; Table 1)?
**A.** < 1.7 nM

**Q.** What does the source list for `COc1ccc2c(c1)[C@@H]1C[C@]1(C(=O)N1CC34CCC3(CN(C(=O)N(C)C)C4)C1)Cn1c-2c(C2CCCCC2)c2ccc(C(=O)NS(=O)(=O)C(C)C)cc21` (stereo partly shown)?
**A.** EC50 (HCV replicon genotype 1a): 1.9 to 500 nM; IC50 (HCV NS5B; Table 1): 1.9 to 500 nM

**Q.** How did the EC50 (HCV replicon genotype 1a) turn out when `COc1ccc2c(c1)[C@@H]1C[C@]1(C(=O)N1CC34CCC3(CN(C(=O)N3CCCC3)C4)C1)Cn1c-2c(C2CCCCC2)c2ccc(C(=O)NS(=O)(=O)C(C)C)cc21` (stereo partly shown) was run?
**A.** 1.9 to 500 nM

**Q.** What about the IC50 (HCV NS5B; Table 1) of the same compound?
**A.** 1.9 to 500 nM

**Q.** Which results are given for `COc1ccc2c(c1)[C@@H]1C[C@]1(C(=O)N1CC34CCC3(CN(C(=O)N3CCOCC3)C4)C1)Cn1c-2c(C2CCCCC2)c2ccc(C(=O)NS(=O)(=O)C(C)C)cc21` (stereo partly shown)?
**A.** EC50 (HCV replicon genotype 1a): 1.9 to 500 nM; IC50 (HCV NS5B; Table 1): 1.9 to 500 nM

**Q.** With `COc1ccc2c(c1)[C@@H]1C[C@]1(C(=O)N1CC34CCC3(CN(CC(F)(F)F)C4)C1)Cn1c-2c(C2CCCCC2)c2ccc(C(=O)NS(=O)(=O)N(C)C)cc21` (stereo partly shown) as the compound, how does the IC50 (HCV NS5B; Table 1) read?
**A.** 1.9 to 500 nM

**Q.** What about the EC50 (HCV replicon; [1]) of the same compound?
**A.** 1.9 to 500 nM

**Q.** Which results are given for `COC(=O)N1CC23CCC2(C1)CN(C(=O)[C@]12C[C@H]1c1cc(OC)ccc1-c1c(C4CCCCC4)c4ccc(C(=O)NS(=O)(=O)C(C)C)cc4n1C2)C3` (stereo partly shown)?
**A.** IC50 (HCV NS5B; Table 1): 1.9 to 500 nM; EC50 (HCV replicon; [1]): 1.9 to 500 nM

**Q.** Which results are given for `COc1ccc2c(c1)[C@@H]1C[C@]1(C(=O)N1CC34CCC3(C1)CN(S(=O)(=O)C(C)C)C4)Cn1c-2c(C2CCCCC2)c2ccc(C(=O)NS(=O)(=O)N(C)C)cc21` (stereo partly shown)?
**A.** IC50 (HCV NS5B; Table 1): 1.9 to 500 nM; EC50 (HCV replicon; [1]): 1.9 to 500 nM

**Q.** Which results are given for `COc1ccc2c(c1)[C@@H]1C[C@]1(C(=O)N1CC34CCC3(C1)CN(S(=O)(=O)C(C)C)C4)Cn1c-2c(C2CCCCC2)c2ccc(C(=O)NS(=O)(=O)C(C)C)cc21` (stereo partly shown)?
**A.** IC50 (HCV NS5B; Table 1): 1.9 to 500 nM; EC50 (HCV replicon; [1]): 1.9 to 500 nM

**Q.** How did the EC50 (HCV replicon genotype 1a) turn out when `CCOCCN1CC23CCC2(C1)CN(C(=O)[C@]12C[C@H]1c1cc(OC)ccc1-c1c(C4CCCCC4)c4ccc(C(=O)NS(=O)(=O)C(C)C)cc4n1C2)C3` (stereo partly shown) was run?
**A.** 1.9 to 500 nM

**Q.** How did the EC50 (HCV replicon genotype 1a) turn out when `COc1ccc2c(c1)[C@@H]1C[C@]1(C(=O)N1CC34CCC3(C1)CN(C1CC1)C4)Cn1c-2c(C2CCCCC2)c2ccc(C(=O)NS(=O)(=O)N(C)C)cc21` (stereo partly shown) was run?
**A.** 1.9 to 500 nM

**Q.** Which results are given for `COc1ccc2c(c1)[C@@H]1C[C@]1(C(=O)N1CC34CCC3(CN(C)C4)C1)Cn1c-2c(C2CCCCC2)c2ccc(C(=O)NS(=O)(=O)C(C)C)cc21` (stereo partly shown) [drawing 71]?
**A.** IC50 (HCV NS5B; Table 1): 1.9 to 500 nM; EC50 (HCV replicon; [1]): 1.9 to 500 nM

**Q.** For `CNC(=O)N1CC23CCC2(C1)CN(C(=O)[C@]12C[C@H]1c1cc(OC)ccc1-c1c(C4CCCCC4)c4ccc(C(=O)NS(=O)(=O)C(C)C)cc4n1C2)C3` (stereo partly shown) [drawing 99], which IC50 (HCV NS5B; Table 1) is on record?
**A.** < 1.7 nM

**Q.** What about the EC50 (HCV replicon; [1]) of the same compound?
**A.** 1.9 to 500 nM

**Q.** `COc1ccc2c(c1)[C@@H]1C[C@]1(C(=O)N1CC34CCC3(CN(C)C4)C1)Cn1c-2c(C2CCCCC2)c2ccc(C(=O)NS(=O)(=O)C(C)C)cc21` (stereo partly shown) [drawing 108] was tested. Which IC50 (HCV NS5B; Table 2) did it give?
**A.** 3.5 nM

**Q.** What about the EC50 (HCV replicon; [2]) of the same compound?
**A.** 6.96 nM

**Q.** How did the IC50 (HCV NS5B; Table 2) turn out when `CNC(=O)N1CC23CCC2(C1)CN(C(=O)[C@]12C[C@H]1c1cc(OC)ccc1-c1c(C4CCCCC4)c4ccc(C(=O)NS(=O)(=O)C(C)C)cc4n1C2)C3` (stereo partly shown) [drawing 111] was run?
**A.** < 1.7 nM

**Q.** And the EC50 (HCV replicon; [2])?
**A.** 60 nM
